Source: ChEMBL document CHEMBL3885861, “Open TG-GATES”

Species on record: Rattus norvegicus
Test: Open TG-GATES - Regimen: Daily Repeat
Type: toxicity, organism-based, Sprague-Dawley
Parameters: regimen Daily Repeat, gender Male, age 6 weeks
Details: in vivo, po, 20 mg/kg, route gavage, dose level High; for APTT / Bas / Eos / Fbg / Hb / Lym / MCH / MCHC / MCV / Mono / Neu / PT / Plat / RBC / Ret / WBC: tissue Blood; for KIDNEY_L / KIDNEY_R / KIDNEY_TOTAL: tissue Kidney; for LIVER: tissue Liver; for ALP / ALT / AST / BUN / CRE / Ca / Cl / DBIL / GLC / IP / K / LDH / Na / PL / RALB / TBIL / TC / TG / TP / gamma-GTP: tissue Plasma

`OCCN1CCN(CCCN2c3ccccc3Sc3ccc(C(F)(F)F)cc32)CC1` [FLUPHENAZINE] gave a TERMINAL_BW (72 h, time 3 day) of 168.5 g, an APTT (72 h, time 3 day) of 13.2 s and a Bas (72 h, time 3 day) of 0%. For the same molecule, the Eos (72 h, time 3 day) was 1.2%, the Fbg (72 h, time 3 day) was 176.8 mg/dL and the Hb (72 h, time 3 day) was 16 g/dL. The Lym (72 h, time 3 day) was 84.6%, the MCH (72 h, time 3 day) was 21.1 pg and the MCHC (72 h, time 3 day) was 33.1%. For the same molecule, the MCV (72 h, time 3 day) was 63.6 fL, the Mono (72 h, time 3 day) was 5.2% and the Neu (72 h, time 3 day) was 9.2%. The PT (72 h, time 3 day) was 12.7 s, the Plat (72 h, time 3 day) was 131.6 x10_4/uL and the RBC (72 h, time 3 day) was 756.8 x10_4/ul. The Ret (72 h, time 3 day) was 1.2%, the WBC (72 h, time 3 day) was 83.2 x10_2/uL and the KIDNEY_L (72 h, time 3 day) was 0.9 g. The KIDNEY_R (72 h, time 3 day) was 0.9 g, the KIDNEY_TOTAL (72 h, time 3 day) was 1.7 g and the LIVER (72 h, time 3 day) was 7.4 g. The ALP (72 h, time 3 day) was 538 IU/L, the ALT (72 h, time 3 day) was 28 IU/L and the AST (72 h, time 3 day) was 76.2 IU/L. The BUN (72 h, time 3 day) was 23.4 mg/dL, the CRE (72 h, time 3 day) was 0.6 mg/dL and the Ca (72 h, time 3 day) was 10.1 mg/dL. For the same molecule, the Cl (72 h, time 3 day) was 108.4 meq/L, the DBIL (72 h, time 3 day) was 0.036 mg/dL and the GLC (72 h, time 3 day) was 180.4 mg/dL. The IP (72 h, time 3 day) was 7 mg/dL, the K (72 h, time 3 day) was 4.2 meq/L and the LDH (72 h, time 3 day) was 189 IU/L. It also gave a Na (72 h, time 3 day) of 140 meq/L, a PL (72 h, time 3 day) of 128 mg/dL and an RALB (72 h, time 3 day) of 4.2 g/dL. For the same molecule, the TBIL (72 h, time 3 day) was 0.3 mg/dL, the TC (72 h, time 3 day) was 74.6 mg/dL and the TG (72 h, time 3 day) was 48.4 mg/dL. It also gave a TP (72 h, time 3 day) of 5.8 g/dL, a gamma-GTP (72 h, time 3 day) of 1 IU/L and a TERMINAL_BW ([…], time 7 day) of 190 g. It also gave a TERMINAL_BW ([…], time 14 day) of 258.2 g, a TERMINAL_BW ([…], time 28 day) of 303.2 g and an APTT ([…], time 7 day) of 15.9 s. It also gave a Bas ([…], time 7 day) of 0%, an Eos ([…], time 7 day) of 0.4% and a Fbg ([…], time 7 day) of 204.6 mg/dL. The Hb ([…], time 7 day) was 15.5 g/dL, the Lym ([…], time 7 day) was 86.4% and the MCH ([…], time 7 day) was 20.9 pg. The MCHC ([…], time 7 day) was 33.8%, the MCV ([…], time 7 day) was 61.7 fL and the Mono ([…], time 7 day) was 4.8%. The Neu ([…], time 7 day) was 8.4%, the PT ([…], time 7 day) was 12.6 s and the Plat ([…], time 7 day) was 95.7 x10_4/uL. It also gave an RBC ([…], time 7 day) of 745.2 x10_4/ul, a Ret ([…], time 7 day) of 2.3% and a WBC ([…], time 7 day) of 93.7 x10_2/uL. For the same molecule, the APTT ([…], time 14 day) was 16.1 s, the Bas ([…], time 14 day) was 0% and the Eos ([…], time 14 day) was 0.8%. For the same molecule, the Fbg ([…], time 14 day) was 214.5 mg/dL, the Hb ([…], time 14 day) was 14.8 g/dL and the Lym ([…], time 14 day) was 80.2%. For the same molecule, the MCH ([…], time 14 day) was 20.5 pg, the MCHC ([…], time 14 day) was 33.3% and the MCV ([…], time 14 day) was 61.6 fL. It also gave a Mono ([…], time 14 day) of 6.2%, a Neu ([…], time 14 day) of 13% and a PT ([…], time 14 day) of 12.3 s. It also gave a Plat ([…], time 14 day) of 95.6 x10_4/uL, an RBC ([…], time 14 day) of 724 x10_4/ul and a Ret ([…], time 14 day) of 3.9%. For the same molecule, the WBC ([…], time 14 day) was 124.5 x10_2/uL, the APTT ([…], time 28 day) was 16.6 s and the Bas ([…], time 28 day) was 0%. For the same molecule, the Eos ([…], time 28 day) was 0.8%, the Fbg ([…], time 28 day) was 206 mg/dL and the Hb ([…], time 28 day) was 15.6 g/dL. It also gave a Lym ([…], time 28 day) of 84.2%, an MCH ([…], time 28 day) of 19.4 pg and an MCHC ([…], time 28 day) of 33.7%. It also gave an MCV ([…], time 28 day) of 57.7 fL, a Mono ([…], time 28 day) of 4% and a Neu ([…], time 28 day) of 11%. It also gave a PT ([…], time 28 day) of 12.3 s, a Plat ([…], time 28 day) of 73.1 x10_4/uL and an RBC ([…], time 28 day) of 804 x10_4/ul. It also gave a Ret ([…], time 28 day) of 2.5%, a WBC ([…], time 28 day) of 157 x10_2/uL and a KIDNEY_L ([…], time 7 day) of 0.9 g. For the same molecule, the KIDNEY_R ([…], time 7 day) was 0.9 g, the KIDNEY_TOTAL ([…], time 7 day) was 1.8 g and the KIDNEY_L ([…], time 14 day) was 1 g. The KIDNEY_R ([…], time 14 day) was 1 g, the KIDNEY_TOTAL ([…], time 14 day) was 2.1 g and the KIDNEY_L ([…], time 28 day) was 1.1 g. It also gave a KIDNEY_R ([…], time 28 day) of 1.2 g, a KIDNEY_TOTAL ([…], time 28 day) of 2.3 g and an LIVER ([…], time 7 day) of 9 g. It also gave an LIVER ([…], time 14 day) of 11.9 g, an LIVER ([…], time 28 day) of 11.9 g and an ALP ([…], time 7 day) of 653.8 IU/L. It also gave an ALT ([…], time 7 day) of 44.4 IU/L, an AST ([…], time 7 day) of 79.6 IU/L and a BUN ([…], time 7 day) of 28.8 mg/dL. The CRE ([…], time 7 day) was 0.5 mg/dL, the Ca ([…], time 7 day) was 10.3 mg/dL and the Cl ([…], time 7 day) was 105.4 meq/L. For the same molecule, the DBIL ([…], time 7 day) was 0.01 mg/dL, the GLC ([…], time 7 day) was 158.2 mg/dL and the IP ([…], time 7 day) was 7 mg/dL. The K ([…], time 7 day) was 4.4 meq/L, the LDH ([…], time 7 day) was 195.8 IU/L and the Na ([…], time 7 day) was 140.4 meq/L. The PL ([…], time 7 day) was 184.6 mg/dL, the RALB ([…], time 7 day) was 4.2 g/dL and the TBIL ([…], time 7 day) was 0.2 mg/dL. For the same molecule, the TC ([…], time 7 day) was 101.2 mg/dL, the TG ([…], time 7 day) was 98.6 mg/dL and the TP ([…], time 7 day) was 6.2 g/dL. It also gave a gamma-GTP ([…], time 7 day) of 1 IU/L, an ALP ([…], time 14 day) of 872 IU/L and an ALT ([…], time 14 day) of 44.8 IU/L. For the same molecule, the AST ([…], time 14 day) was 81.5 IU/L, the BUN ([…], time 14 day) was 19.8 mg/dL and the CRE ([…], time 14 day) was 0.6 mg/dL. For the same molecule, the Ca ([…], time 14 day) was 10.8 mg/dL, the Cl ([…], time 14 day) was 103.2 meq/L and the DBIL ([…], time 14 day) was 0.0025 mg/dL. For the same molecule, the GLC ([…], time 14 day) was 182.8 mg/dL, the IP ([…], time 14 day) was 8.7 mg/dL and the K ([…], time 14 day) was 4.2 meq/L. For the same molecule, the LDH ([…], time 14 day) was 148 IU/L, the Na ([…], time 14 day) was 137.2 meq/L and the PL ([…], time 14 day) was 141 mg/dL. It also gave an RALB ([…], time 14 day) of 4.2 g/dL, a TBIL ([…], time 14 day) of 0.2 mg/dL and a TC ([…], time 14 day) of 66.5 mg/dL. For the same molecule, the TG ([…], time 14 day) was 86.8 mg/dL, the TP ([…], time 14 day) was 6.2 g/dL and the gamma-GTP ([…], time 14 day) was 2 IU/L. The ALP ([…], time 28 day) was 676.6 IU/L, the ALT ([…], time 28 day) was 31.6 IU/L and the AST ([…], time 28 day) was 80.2 IU/L. The BUN ([…], time 28 day) was 24.2 mg/dL, the CRE ([…], time 28 day) was 0.7 mg/dL and the Ca ([…], time 28 day) was 10.4 mg/dL. For the same molecule, the Cl ([…], time 28 day) was 111.2 meq/L, the DBIL ([…], time 28 day) was 0.022 mg/dL and the GLC ([…], time 28 day) was 170.8 mg/dL. The IP ([…], time 28 day) was 6.2 mg/dL, the K ([…], time 28 day) was 4.4 meq/L and the LDH ([…], time 28 day) was 145.6 IU/L. The Na ([…], time 28 day) was 142 meq/L, the PL ([…], time 28 day) was 114.4 mg/dL and the RALB ([…], time 28 day) was 4.2 g/dL. The TBIL ([…], time 28 day) was 0.3 mg/dL, the TC ([…], time 28 day) was 57.8 mg/dL and the TG ([…], time 28 day) was 35.4 mg/dL. It also gave a TP ([…], time 28 day) of 6.4 g/dL and a gamma-GTP ([…], time 28 day) of 1.4 IU/L.
